The record followed here is patent publication US20260053932A1, “COMPOUNDS AND METHODS FOR THE TARGETED DEGRADATION OF ANDROGEN RECEPTOR AND ASSOCIATED METHODS OF USE” (Arvinas Operations, Inc., priority 2020, published 2026).

The assay concerns androgen receptor (AR) in LNCaP and/or VCaP cells. Nature of the assay: Androgen Receptor ELISA assay (AR degradation). It is filed as cell-based. The note with it: LNCaP and/or VCaP cells; 5 hours incubation; media with R1881; read-out: DC50 Code* (degradation of AR ELISA). Summed up: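 VCaP cells grown ≥3 days, then treated 5 h with compound in media containing 1 nM R1881 (10× stock). Cells lysed and AR quantified by sandwich ELISA (mouse AR detection Ab, HRP anti-mouse, TMB). DC50 and Dmax derived from AR degradation.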
`COc1cc(O[C@H]2C[C@H](N(CC3CCN(c4ncc(C(=O)NC5CC6CC(Oc7cc(C)c(C#N)c(C)c7)CC6C5)cn4)CC3)C(C)C)C2)cc2c1C(=O)N(C1CCC(=O)NC1=O)C2=O` (some centres unmarked) [Compound 2, N-(5-(4-cyano-3,5-dimethylphenoxy)octahydropentalen-2-yl)-2-(4-((((1r,3r)-3-((2-(2,6-dioxopiperidin-3-yl)-7-methoxy-1,3-dioxoisoindolin-5-yl)oxy)cyclobutyl) (isopropyl)amino)methyl)piperidin-1-yl)pyrimidine-5-carboxamide]: the DC50 was > 100 nM. On to `COc1cc(O[C@H]2C[C@H](N(CC3CCN(c4ncc(C(=O)NC5CC6CN(Cc7cc(C)c(C#N)c(C)c7)CC6C5)cn4)CC3)C(C)C)C2)cc2c1C(=O)N(C1CCC(=O)NC1=O)C2=O` (some centres unmarked) [Compound 3, N-(2-(4-cyano-3,5-dimethylbenzyl)octahydrocyclopenta [c]pyrrol-5-yl)-2-(4-((((1r,3r)-3-((2-(2,6-dioxopiperidin-3-yl)-7-methoxy-1,3-dioxoisoindolin-5-yl)oxy)cyclobutyl) (isopropyl)amino)methyl)piperidin-1-yl)pyrimidine-5-carboxamide], for which the DC50 is > 100 nM. As for `COc1cc(O[C@H]2C[C@H](N(CC3CCN(c4ncc(C(=O)N[C@@H]5CC[C@H](Oc6cc(C)c(C#N)c(C)c6)C5)cn4)CC3)C(C)C)C2)cc2c1C(=O)N(C1CCC(=O)NC1=O)C2=O` (stereo partly drawn) [Compound 4, N-((1R,3S)-3-(4-cyano-3,5-dimethylphenoxy)cyclopentyl)-2-(4-((((1r,3R)-3-((2-(2,6-dioxopiperidin-3-yl)-7-methoxy-1,3-dioxoisoindolin-5-yl)oxy)cyclobutyl) (isopropyl)amino)methyl)piperidin-1-yl)pyrimidine-5-carboxamide], the figure is > 100 nM; as for `COc1cc(O[C@H]2C[C@H](N(CC3CCN(c4ncc(C(=O)N[C@H]5CC[C@H](Oc6cc(C)c(C#N)c(C)c6)C5)cn4)CC3)C(C)C)C2)cc2c1C(=O)N(C1CCC(=O)NC1=O)C2=O` (stereo partly drawn) [Compound 5, N-((1S,3S)-3-(4-cyano-3,5-dimethylphenoxy)cyclopentyl)-2-(4-((((1r,3S)-3-((2-(2,6-dioxopiperidin-3-yl)-7-methoxy-1,3-dioxoisoindolin-5-yl)oxy)cyclobutyl) (isopropyl)amino)methyl)piperidin-1-yl)pyrimidine-5-carboxamide], > 100 nM. To `COc1cc(O[C@H]2CC[C@@H](NC(=O)c3cnc(N4CCC(CN(C(C)C)[C@H]5C[C@H](Oc6ccc7c(c6)C(=O)N(C6CCC(=O)NC6=O)C7=O)C5)CC4)cn3)C2)ccc1C#N` (stereo partly drawn) [Compound 6, N-((1R,3S)-3-(4-cyano-3-methoxyphenoxy)cyclopentyl)-5-(4-((((1r,3R)-3-((2-(2,6-dioxopiperidin-3-yl)-1,3-dioxoisoindolin-5-yl)oxy)cyclobutyl) (isopropyl)amino)methyl)piperidin-1-yl)pyrazine-2-carboxamide] belongs > 100 nM; to `COc1cc(O[C@H]2CC[C@H](NC(=O)c3cnc(N4CCC(CN(C(C)C)[C@H]5C[C@H](Oc6ccc7c(c6)C(=O)N(C6CCC(=O)NC6=O)C7=O)C5)CC4)cn3)C2)ccc1C#N` (stereo partly drawn) [Compound 7, N-((1S,3S)-3-(4-cyano-3-methoxyphenoxy)cyclopentyl)-5-(4-((((1r,3S)-3-((2-(2,6-dioxopiperidin-3-yl)-1,3-dioxoisoindolin-5-yl)oxy)cyclobutyl) (isopropyl)amino)methyl)piperidin-1-yl)pyrazine-2-carboxamide], > 100 nM. As to `COc1cc(O[C@H]2C[C@H](N(CC3CCN(c4ncc(C(=O)N[C@@H]5CC[C@@H](Oc6cc(C)c(C#N)c(C)c6)C5)cn4)CC3)C(C)C)C2)cc2c1C(=O)N(C1CCC(=O)NC1=O)C2=O` (stereo partly drawn) [Compound 8, N-((1R,3R)-3-(4-cyano-3,5-dimethylphenoxy)cyclopentyl)-2-(4-((((1r,3R)-3-((2-(2,6-dioxopiperidin-3-yl)-7-methoxy-1,3-dioxoisoindolin-5-yl)oxy)cyclobutyl) (isopropyl)amino)methyl)piperidin-1-yl)pyrimidine-5-carboxamide], the half-maximal degradation concentration (DC50) is > 100 nM. As for `COc1cc(O[C@H]2C[C@H](N(CC3CCN(c4ncc(C(=O)N[C@H]5CC[C@@H](Oc6cc(C)c(C#N)c(C)c6)C5)cn4)CC3)C(C)C)C2)cc2c1C(=O)N(C1CCC(=O)NC1=O)C2=O` (stereo partly drawn) [Compound 9, N-((1S,3R)-3-(4-cyano-3,5-dimethylphenoxy)cyclopentyl)-2-(4-((((1r,3S)-3-((2-(2,6-dioxopiperidin-3-yl)-7-methoxy-1,3-dioxoisoindolin-5-yl)oxy)cyclobutyl) (isopropyl)amino)methyl)piperidin-1-yl)pyrimidine-5-carboxamide], the figure is > 100 nM.

As to `COc1cc(O[C@@H]2CC[C@@H](NC(=O)c3cnc(N4CCC(CN(C(C)C)[C@H]5C[C@H](Oc6ccc7c(c6)C(=O)N(C6CCC(=O)NC6=O)C7=O)C5)CC4)cn3)C2)ccc1C#N` (stereo partly drawn) [Compound 10, N-((1R,3R)-3-(4-cyano-3-methoxyphenoxy)cyclopentyl)-5-(4-((((1r,3R)-3-((2-(2,6-dioxopiperidin-3-yl)-1,3-dioxoisoindolin-5-yl)oxy)cyclobutyl) (isopropyl)amino)methyl)piperidin-1-yl)pyrazine-2-carboxamide], the DC50 is > 100 nM. For the compound `COc1cc(O[C@@H]2CC[C@H](NC(=O)c3cnc(N4CCC(CN(C(C)C)[C@H]5C[C@H](Oc6ccc7c(c6)C(=O)N(C6CCC(=O)NC6=O)C7=O)C5)CC4)cn3)C2)ccc1C#N` (stereo partly drawn) [Compound 11, N-((1S,3R)-3-(4-cyano-3-methoxyphenoxy)cyclopentyl)-5-(4-((((1r,3S)-3-((2-(2,6-dioxopiperidin-3-yl)-1,3-dioxoisoindolin-5-yl)oxy)cyclobutyl) (isopropyl)amino)methyl)piperidin-1-yl)pyrazine-2-carboxamide], the 50% degradation concentration (DC50) is > 100 nM. Regarding `N#Cc1ccc(O[C@H]2CC[C@H](NC(=O)c3cnc(N4CCC(CN(CC5COC5)[C@H]5C[C@H](Oc6ccc7c(c6)CN(C6CCC(=O)NC6=O)C7=O)C5)CC4)cn3)CC2)cc1Cl` (some centres unmarked) [Compound 13, N-((1r,4r)-4-(3-chloro-4-cyanophenoxy)cyclohexyl)-5-(4-((((1r,3r)-3-((2-(2,6-dioxopiperidin-3-yl)-1-oxoisoindolin-5-yl)oxy)cyclobutyl) (oxetan-3-ylmethyl)amino)methyl)piperidin-1-yl)pyrazine-2-carboxamide], the DC50 is < 1 nM. For the compound `COc1cc(O[C@H]2C[C@H](N(CC3CCN(c4cnc(C(=O)N[C@H]5CC[C@H](Oc6ccc(C#N)c(Cl)c6)CC5)cn4)CC3)C(C)C)C2)cc2c1C(=O)N(C1CCC(=O)NC1=O)C2=O` (some centres unmarked) [Compound 14, N-((1r,4r)-4-(3-chloro-4-cyanophenoxy)cyclohexyl)-5-(4-((((1r,3r)-3-((2-(2,6-dioxopiperidin-3-yl)-7-methoxy-1,3-dioxoisoindolin-5-yl)oxy)cyclobutyl) (isopropyl)amino)methyl)piperidin-1-yl)pyrazine-2-carboxamide], the DC50 was < 1 nM. Regarding `N#Cc1ccc(O[C@H]2CC[C@H](NC(=O)c3cnc(N4CCC(CN(C5COC5)[C@H]5C[C@H](Oc6ccc7c(c6)C(=O)N(C6CCC(=O)NC6=O)C7)C5)CC4)cn3)CC2)cc1Cl` (some centres unmarked) [Compound 15, N-((1r,4r)-4-(3-chloro-4-cyanophenoxy)cyclohexyl)-5-(4-((((1r,3r)-3-((2-(2,6-dioxopiperidin-3-yl)-3-oxoisoindolin-5-yl)oxy)cyclobutyl) (oxetan-3-yl)amino)methyl)piperidin-1-yl)pyrazine-2-carboxamide], the DC50 was < 1 nM. To `COCCN(CC1CCN(c2cnc(C(=O)N[C@H]3CC[C@H](Oc4ccc(C#N)c(Cl)c4)CC3)cn2)CC1)[C@H]1C[C@H](Oc2ccc3c(c2)CN(C2CCC(=O)NC2=O)C3=O)C1` (some centres unmarked) [Compound 16, N-((1r,4r)-4-(3-chloro-4-cyanophenoxy)cyclohexyl)-5-(4-((((1r,3r)-3-((2-(2,6-dioxopiperidin-3-yl)-1-oxoisoindolin-5-yl)oxy)cyclobutyl)(2-methoxyethyl)amino)methyl)piperidin-1-yl)pyrazine-2-carboxamide] belongs < 1 nM; to `COc1cc(O[C@H]2C[C@H](N(CC3CCN(c4cnc(C(=O)N[C@H]5CC[C@H](Oc6cc(C)c(C#N)c(C)c6)CC5)cn4)CC3)C(C)C)C2)cc2c1C(=O)N(C1CCC(=O)NC1=O)C2=O` (some centres unmarked) [Compound 17, N-((1r,4r)-4-(4-cyano-3,5-dimethylphenoxy)cyclohexyl)-5-(4-((((1r,3r)-3-((2-(2,6-dioxopiperidin-3-yl)-7-methoxy-1,3-dioxoisoindolin-5-yl)oxy)cyclobutyl) (isopropyl)amino)methyl)piperidin-1-yl)pyrazine-2-carboxamide], < 1 nM. As for `COc1cc(O[C@H]2CC[C@H](NC(=O)c3cnc(N4CCC(CN(C(C)C)[C@H]5CC[C@H](Oc6ccc7c(c6)CN(C6CCC(=O)NC6=O)C7=O)CC5)CC4)cn3)CC2)ccc1C#N` (some centres unmarked) [Compound 19, N-((1r,4r)-4-(4-cyano-3-methoxyphenoxy)cyclohexyl)-5-(4-((((1r,4r)-4-((2-(2,6-dioxopiperidin-3-yl)-1-oxoisoindolin-5-yl)oxy)cyclohexyl) (isopropyl)amino)methyl)piperidin-1-yl)pyrazine-2-carboxamide], the figure is < 1 nM; as for `COc1cc(O[C@H]2CC[C@H](NC(=O)c3cnc(N4CC(CN(C(C)C)[C@H]5C[C@H](Oc6ccc7c(c6)C(=O)N(C6CCC(=O)NC6=O)C7=O)C5)C4)cn3)CC2)ccc1C#N` (some centres unmarked) [Compound 20, N-((1r,4r)-4-(4-cyano-3-methoxyphenoxy)cyclohexyl)-5-(3-((((1r,3r)-3-((2-(2,6-dioxopiperidin-3-yl)-1,3-dioxoisoindolin-5-yl)oxy)cyclobutyl) (isopropyl)amino)methyl)azetidin-1-yl)pyrazine-2-carboxamide], < 1 nM.
